Laboratory results from patent publication US20140205681A1, “HYDROGEN-BOND SURROGATE PEPTIDES AND PEPTIDOMIMETICS FOR p53 REACTIVATION” (New York University, priority 2013, published 2014).
Ends that are not written are not given here. * marks the point of attachment. A∗ = N-allylalanine, C=CCN[C@@H](C)C(=O)*; code X = not defined here

Key:
[1] = test system: IMR90 (human normal fibroblasts); experiment: Cell proliferation (MTT); type: cell-based; conditions: for effect on efficacy of cis-platinum on proliferation: IMR90 fibroblasts, 10 μM with cis-platinum 10 μM; for cell proliferation, single-agent: human normal IMR90 fibroblasts, 10 μM
Procedure: (§1) Cell proliferation was assessed using the MTT reagent (Roche Molecular Biochemicals, Nutley, N.J.) to detect metabolic active cells. Absorbance was measured at 570 nm in the Spectra Max 190 ELISA reader (Molecular Devices, Sunnyvale, Calif.) after overnight incubation. For clonogenic survival, 200 cells per well were plated in complete growth media and allowed to grow until visible colonies were formed (14 days). Cell colonies were fixed with cold methanol, stained with 0.25% crystal violet in 25% methanol, washed, and air dried. For apoptosis, cells were harvested, washed with cold PBS, and co-stained with Annexin V and propidium iodide according to the manufacturer's protocol (ApoAlert Annexin V-FITC Apoptosis Kit; Clontech). Apoptotic cells were analyzed using BD FACS Calibur (BD Biosciences Corporation, Franklin Lakes, N.J.) at The Ohio State University Comprehensive Cancer Center Analytical Cytometry Core.

[2] = test system: p300, p53, p21, miR-34a, miR-200c; experiment: Quantitative real-time PCR of p300, p53, p21, miR-34a and miR-200c expression; type: cell-based, human; conditions: 10 μM, 24 hours; for expression of p300, p53, and p53-regulated genes: UMSCC74A
Procedure: Cells were extracted for total RNA using the TRIzol® reagent (Invitrogen) or TaqMan PreAmp Cells-to-CT kit (Applied Biosystems). Expression of p300, p53, p21, miR-34a and miR-200c were determined using the Applied Biosystems 7900HT Fast Real-Time PCR System with validated TaqMan gene expression assays (Applied Biosystems). p53, p300, and p21 expression were normalized to GADPH and miR-34a and miR-200c expression were normalized to RNU44 using the ΔΔCt method.

UMSCC74A cells = experiment: Cell proliferation (MTT); type: cell-based, human; conditions: for cell proliferation, single-agent: HPV-negative UMSCC74A cells, 10 μM; for effect on efficacy of cis-platinum on proliferation: UMSCC74A cells, 10 μM with cis-platinum 10 μM
Procedure: as §1

UMSCC47 cells [3] = experiment: Cell proliferation (MTT); type: cell-based, human; conditions: UMSCC47 cells; for cell proliferation, single-agent: 10 μM, 24-72 hours
Procedure: as §1

p53 [4] = experiment: p53 transcriptional activity (Cignal p53 Firefly/Renilla luciferase reporter); type: cell-based, human; conditions: 24 hours; for p53 activity, increase: HPV-positive UMSCC47 cells, vs vehicle; for p53 activity, increase / p53 activity: 10 μM; for p53 activity: UMSCC74A (HPV-negative, p53 wildtype)
Procedure: Cells were transfected with 100 ng of Cignal p53 reporter (SABiosciences, Valencia, Calif.) using Lipofectamine 2000. Cignal p53 reporter contains tandem repeats of the p53 consensus transcriptional response element. After 48 hours, cells were washed with cold PBS, lysed in passive lysis buffer (Promega), and measured for Firefly/Renilla dual luciferase activities in a luminometer using the Dual-Light System (Applied Biosystems, Foster City, Calif.). […] to control for transfection efficiency. A modification to the protocol was used for compound treatment. UMSCC47 cells were transfected with 100 ng of Cignal p53 reporter. After 24 hours, cells were treated with vehicle, CH1iB (10 μM), cis-platinum (10 μM), or combination of CH1iB (10 μM) and cis-platinum (10 μM) and measured for Firefly/Renilla dual luciferase activities 24 hours post-treatment.

p53 [5] = experiment: Western blot of total and acetylated[K382] p53 levels; type: cell-based, human; conditions: 24 hours; for acetylated p53 levels / p53 accumulation / p53 levels: 10 μM; for p53 levels: UMSCC74A
Procedure: Whole cell lysates were mixed with Laemmli loading buffer, boiled, separated by SDS-PAGE, and transferred to a nitrocellulose membrane. Subsequently, immunoblot analyses were performed using antibodies specific to V5 (Invitrogen), p53 (sc-126, Santa Cruz Biotechnology, Santa Cruz, Calif.), or acetylated[[…]]-p53 (2525, Cell Signaling Technology). The signal was developed using the SuperSignal Western Blotting Kit (Pierce, Rockford, Ill.).

CH1 domain of p300 = CH1 domain of p300 (Homo sapiens, UniProt Q09472); conditions: competes with endogenous HIF-1α for p300; Henchey et al. 2010; cited from earlier work
Sequence of CH1 domain of p300 (Q09472 whole entry, the tested form may be a part): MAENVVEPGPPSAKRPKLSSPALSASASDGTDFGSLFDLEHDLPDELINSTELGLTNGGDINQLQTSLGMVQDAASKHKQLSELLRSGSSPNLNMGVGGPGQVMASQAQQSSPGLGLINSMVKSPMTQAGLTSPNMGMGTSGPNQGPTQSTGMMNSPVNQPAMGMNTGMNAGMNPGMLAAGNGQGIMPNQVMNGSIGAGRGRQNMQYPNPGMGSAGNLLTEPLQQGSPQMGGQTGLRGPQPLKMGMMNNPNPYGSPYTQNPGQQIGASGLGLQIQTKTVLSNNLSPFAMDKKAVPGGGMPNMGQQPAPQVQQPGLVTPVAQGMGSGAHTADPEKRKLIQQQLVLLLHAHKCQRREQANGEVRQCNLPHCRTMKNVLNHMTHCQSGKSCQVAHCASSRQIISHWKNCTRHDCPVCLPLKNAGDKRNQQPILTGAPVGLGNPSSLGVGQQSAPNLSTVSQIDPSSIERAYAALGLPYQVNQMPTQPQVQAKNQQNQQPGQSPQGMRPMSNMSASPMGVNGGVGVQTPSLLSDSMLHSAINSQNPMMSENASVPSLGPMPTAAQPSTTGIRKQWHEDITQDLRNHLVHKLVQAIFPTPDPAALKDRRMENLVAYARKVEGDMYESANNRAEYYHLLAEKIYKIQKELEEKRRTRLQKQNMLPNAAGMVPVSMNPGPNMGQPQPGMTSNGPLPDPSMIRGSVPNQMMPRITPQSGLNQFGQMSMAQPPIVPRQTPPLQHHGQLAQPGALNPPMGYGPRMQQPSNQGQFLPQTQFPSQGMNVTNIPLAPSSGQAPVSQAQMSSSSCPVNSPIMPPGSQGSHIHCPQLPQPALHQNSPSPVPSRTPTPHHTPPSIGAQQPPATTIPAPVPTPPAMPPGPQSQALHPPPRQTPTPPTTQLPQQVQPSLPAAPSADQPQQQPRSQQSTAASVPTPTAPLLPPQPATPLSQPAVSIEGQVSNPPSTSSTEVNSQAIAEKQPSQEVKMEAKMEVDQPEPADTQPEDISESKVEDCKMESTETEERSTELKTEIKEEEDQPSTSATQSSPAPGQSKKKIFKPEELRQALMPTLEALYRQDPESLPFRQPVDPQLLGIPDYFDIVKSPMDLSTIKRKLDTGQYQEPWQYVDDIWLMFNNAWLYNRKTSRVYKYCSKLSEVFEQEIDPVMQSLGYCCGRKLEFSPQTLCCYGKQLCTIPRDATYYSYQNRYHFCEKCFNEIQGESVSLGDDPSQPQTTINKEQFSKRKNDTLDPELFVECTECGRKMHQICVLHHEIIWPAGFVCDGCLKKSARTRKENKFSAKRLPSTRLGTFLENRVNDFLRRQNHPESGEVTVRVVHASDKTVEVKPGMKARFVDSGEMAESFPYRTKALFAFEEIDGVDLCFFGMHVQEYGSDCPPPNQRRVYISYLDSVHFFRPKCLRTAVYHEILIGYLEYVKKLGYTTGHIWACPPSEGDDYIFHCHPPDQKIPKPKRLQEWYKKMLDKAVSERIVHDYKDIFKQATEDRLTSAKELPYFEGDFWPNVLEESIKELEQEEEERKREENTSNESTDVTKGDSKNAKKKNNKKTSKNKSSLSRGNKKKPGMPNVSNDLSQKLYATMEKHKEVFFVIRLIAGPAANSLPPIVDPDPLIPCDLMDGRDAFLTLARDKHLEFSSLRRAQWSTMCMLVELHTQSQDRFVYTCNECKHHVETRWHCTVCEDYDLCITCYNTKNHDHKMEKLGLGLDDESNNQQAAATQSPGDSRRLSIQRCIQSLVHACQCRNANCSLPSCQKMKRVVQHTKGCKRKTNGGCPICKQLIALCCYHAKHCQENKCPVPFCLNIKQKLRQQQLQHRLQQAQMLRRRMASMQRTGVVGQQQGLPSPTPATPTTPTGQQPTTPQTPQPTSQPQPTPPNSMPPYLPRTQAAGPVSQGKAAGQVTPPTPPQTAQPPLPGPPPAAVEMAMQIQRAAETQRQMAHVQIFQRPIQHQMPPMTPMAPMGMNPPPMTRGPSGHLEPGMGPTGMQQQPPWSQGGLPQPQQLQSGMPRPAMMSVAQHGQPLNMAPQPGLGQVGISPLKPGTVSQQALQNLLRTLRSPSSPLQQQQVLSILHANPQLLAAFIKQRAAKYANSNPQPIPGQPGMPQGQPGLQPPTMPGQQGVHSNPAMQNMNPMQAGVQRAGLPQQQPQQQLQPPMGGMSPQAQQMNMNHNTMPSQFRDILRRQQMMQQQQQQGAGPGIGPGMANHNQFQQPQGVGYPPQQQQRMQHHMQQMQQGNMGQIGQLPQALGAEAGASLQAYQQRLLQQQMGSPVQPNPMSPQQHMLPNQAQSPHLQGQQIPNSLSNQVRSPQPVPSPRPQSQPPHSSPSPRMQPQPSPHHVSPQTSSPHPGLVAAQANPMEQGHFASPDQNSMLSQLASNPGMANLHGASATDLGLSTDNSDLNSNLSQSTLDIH

UMSCC47 cells [6] = experiment: Tumorsphere formation; type: cell-based, human; conditions: UMSCC47 cells, 10 μM, 7 days, vs vehicle
Procedure: Cells were harvested and seeded in a serum-free defined medium consisting of KSF medium supplemented with epidermal growth factor, basic fibroblast growth factor, insulin, and hydrocortisone in low-attachment plates (Corning Incorporated, Corning, N.Y.) for tumorspheres. Tumorsphere formation efficiency was calculated as the number of tumorspheres ([…] in diameter) formed in 7 days divided by the original number of cells seeded. Tumorsphere diameter was measured using NIS-Elements software.

HPV16 E6-p300 = target: T1, HPV16 E6-p300 (Homo sapiens, UniProt Q09472); experiment: Immunoprecipitation of HPV16 E6-p300 association; type: cell-based; conditions: UMSCC47 cells, 10 μM, 24 hours
T1 construct: Cell lysates were extracted, immunoprecipitated with anti-p300 antibody, and immunoblotted with anti-E6 antibody; endogenous in cells; host or cells: UMSCC47 (HPV16-positive HNSCC)
T1 sequence (Q09472 whole entry): as the sequence (Q09472 whole entry, the tested form may be a part) above
Procedure: Cells were lysed with NP buffer [50 mM Tris (pH 8.0), 150 mM NaCl, 0.5% deoxycholate, 0.1% SDS, and 1.0% NP-40] containing 1× Protease Inhibitor Cocktail (Roche, Switzerland) at 4° C. with gentle rocking for 15 min. The supernatant was pre-cleared to block nonspecific binding with 50 μL protein A/G Agarose beads (Pierce Biotechnology) that had been pre-washed with NP buffer before use. Equal amounts of anti-E6 antibody (Abcam), anti-p300 antibody (Millipore), or IgG antibody (Cell Signaling) were added to the respective samples. After 4 hours incubation at 4° C., 50 μL pre-washed protein A/G-agarose beads were added to each tube and immunoprecipitation was performed by rocking overnight at 4° C. The immunoprecipitated complexes were washed with NP buffer and then eluted using 2×SDS sample buffer. Eluted sample and 10% of input were resolved by SDS-PAGE for Western blot analysis with anti-E6, anti-p300, or anti-V5 antibodies.

UMSCC47 cells [7] = experiment: Clonogenic survival (crystal violet); type: cell-based, human; conditions: UMSCC47 cells, 10 μM each agent, 14 days, vs vehicle
Procedure: as §1

UMSCC47 cells [8] = experiment: Apoptosis (Annexin V FACS); type: cell-based, human; conditions: 10 μM, 24 hours, vs vehicle
Procedure: as §1

[9] = UMSCC47 cells, 10 μM with cis-platinum 10 μM

Substance | effect on efficacy of cis-platinum on proliferation [1] | cell proliferation, single-agent [1] | expression of p300, p53, and p53-regulated genes [2] | cell proliferation, single-agent (UMSCC74A cells) | effect on efficacy of cis-platinum on proliferation (UMSCC74A cells) | cell proliferation, single-agent (UMSCC47 cells [3]) | p53 activity, increase (p53 [4]) | p53 activity (p53 [4]) | acetylated p53 levels (p53 [5]; UMSCC47 cells) | p53 accumulation (p53 [5]; UMSCC47 cells) | p53 levels (p53 [5]) | HIF-1α-mediated transcription of vascular endothelial growth factor (CH1 domain of p300) | tumorsphere formation, reduced by (UMSCC47 cells [6]) | association between E6 and p300 (HPV16 E6-p300) | p21, miR-34a, and miR-200c expression ([2]; UMSCC47 cells) | effect on anti-proliferative efficacy of cis-platinum (UMSCC47 cells [3]; 10 μM with cis-platinum 10 μM) | effect of cis-platinum on p53 activity (p53 [4]; [9]) | effect of cis-platinum on p53 accumulation and acetylation (p53 [5]; [9]) | clonogenic survival, reduction/inhibition (UMSCC47 cells [7]) | apoptosis, enhanced by (UMSCC47 cells [8])
XTAA*DCEYNAR ({code X-Thr-Ala-A∗}-DCEYNAR; staple (positions not given here); reading uncertain; also: HBS: 4-pentenoic acid, N-allylalanine, printed as XTAA*DCEYNAR) [CH1iA, hydrogen bond surrogate stabilized α-helical mimic of HIF-1α targeting site A of p300 CH1; X = 4-pentenoic acid, A* = N-allylalanine, reference compound] | did not augment | no effect | unchanged | no effect | did not augment | inactive | no effect | did not modulate | no effect | no effect | did not modulate | reduction |  |  |  |  |  |  |  | 
XELA*RALDQ-NH2 [CH1iB] | did not augment | no effect | unchanged | no effect | did not augment | inhibited the proliferation | 71% | did not modulate | enhanced | enhanced | did not modulate |  | 20% | reduced | modest but significant increase | potentiated | potentiated | potentiated | 35% | 353%
